ChEMBL document CHEMBL5104105, “Identification of the first structurally validated covalent ligands of the small GTPase RAB27A” (RSC Med Chem, 2022)
The source made the active and inactive calls. The calls are words filed in the database; no cut-off is given here.

Key:
Homo sapiens [1] = species on record: Homo sapiens; experiment: Covalent binding affinity to Spl2/Rab27A C188 mutant fusion protein (unknown origin) assessed as half-life of adduct formation by measuring protein mass shift after 24 hrs by intact-protein mass spectrometry
Homo sapiens [2] = species on record: Homo sapiens; experiment: Covalent binding affinity to Spl2/Rab27A C123 mutant fusion protein (unknown origin) assessed as half-life of adduct formation by measuring protein mass shift after 8 hrs by intact-protein mass spectrometry

## C=CC(=O)N1CCC[C@H]1c1ccc(OC)cc1
Homo sapiens [1]
  Activity: Active

## C=CC(=O)Nc1nc2ccccc2n1CCc1ccccn1
Homo sapiens [1]
  Activity: Active
Homo sapiens [2]
  Activity: Active
